What was measured:
Format in all cases: physicochemical
[1] = Hygroscicity by Dynamic Vapor Sorption (DVS) at 25° C.; conditions: for Desorp. (%) Cycle 1 / Desorp. (%) Cycle 2 / Sorp. (%) Cycle 1 / Sorp. (%) Cycle 2 / Hygroscopicity / Water uptake: DVS 25° C.; for XRPD after DVS test: 25° C.; for Water uptake: up to 95% RH
Protocol: Hygroscopicity was investigated by DVS at 25° C., using the following method: […]

[2] = Polymorph screening by equilibration in solvents at 25° C. (XRPD)
[3] = Bulk stability, accelerated storage for one week (HPLC, XRPD); conditions: for Stability after exposure to the three conditions: 25° C./92% RH open, 40° C./75% RH open, 60° C. tight container; for Stability after exposure to the three conditions / Degradation product increase: one week; for Bulk (XRPD) / Color / Purity, Bulk (HPLC): 1 week; for Initial HPLC purity: before storage
Protocol: Bulk stability: Accelerated stability experiments were conducted at 25° C./92% RH and 40° C./75% RH in an open container, 60° C. in a tight container for one week.
Samples were characterized by XRPD and HPLC and inspected for color change.
Accelerated stability experiments were conducted at 25° C./92% RH in an open container, at 40° C./75% RH in an open container, and at 60° C. in a tight container for one week.

[4] = Solubility in buffers, water and simulated vaginal fluid at 37° C.
Protocol: About 4 mg of Compound I Pattern 1 was added into 2 mL of buffer solution.
(§1) Solubility was tested in five media, pH 3.0 citrate buffer, pH 4.5 acetate buffer, pH 6.8 phosphate buffer, water, simulated vaginal fluid (pH 4.2) at 37° C. for 0.5 h and 2 h.
The salt amount used is equivalent to 10 mg anhydrous free base. […] The obtained clear solutions were analyzed by pH meter for pH, and solubility was determined by observation.
as §1

[5] = BS1: solid state, 25° C./92% RH, open container
[6] = BS2: solid state, 40° C./75% RH, open container
[7] = BS3: solid state, 60° C., tight container
[8] = ES1: pH 3.0, 100 mM citrate buffer
[9] = ES2: pH 4.5, 50 mM acetate buffer
[10] = ES3: pH 6.8, 50 mM phosphate buffer
[11] = ES5: Simulated vaginal fluid (pH adjusted by 0.1N NaOH)

For `CCOC(=O)C(C)NP(=O)(COCCn1cnc2c(OC)nc(N)nc21)OCc1ccccc1.O=C(O)C=CC(=O)O` (stereo not shown) [Compound II Pattern 1], the “Desorp. (%) Cycle 1” value ([1]; 0% RH) was 0.03%, the “Desorp. (%) Cycle 2” value ([1]; 0% RH) was 0.03% and the “Sorp. (%) Cycle 1” value ([1]; 0% RH) was 0.03%. The “Sorp. (%) Cycle 2” value ([1]; 0% RH) was 0.03%, the “Desorp. (%) Cycle 1” value ([1]; 10% RH) was 0.05% and the “Desorp. (%) Cycle 2” value ([1]; 10% RH) was 0.05%. For the same molecule, the “Sorp. (%) Cycle 1” value ([1]; 10% RH) was 0.04%, the “Sorp. (%) Cycle 2” value ([1]; 10% RH) was 0.04% and the “Desorp. (%) Cycle 1” value ([1]; 20% RH) was 0.08%. The “Desorp. (%) Cycle 2” value ([1]; 20% RH) was 0.07%, the “Sorp. (%) Cycle 1” value ([1]; 20% RH) was 0.06% and the “Sorp. (%) Cycle 2” value ([1]; 20% RH) was 0.06%. The “Desorp. (%) Cycle 1” value ([1]; 30% RH) was 0.10%, the “Desorp. (%) Cycle 2” value ([1]; 30% RH) was 0.08% and the “Sorp. (%) Cycle 1” value ([1]; 30% RH) was 0.08%. The “Sorp. (%) Cycle 2” value ([1]; 30% RH) was 0.07%, the “Desorp. (%) Cycle 1” value ([1]; 40% RH) was 0.17% and the “Desorp. (%) Cycle 2” value ([1]; 40% RH) was 0.10%. For the same molecule, the “Sorp. (%) Cycle 1” value ([1]; 40% RH) was 0.10%, the “Sorp. (%) Cycle 2” value ([1]; 40% RH) was 0.09% and the “XRPD after DVS test” value ([1]; 40-0-95-0-40% RH) was “No form change”. The “Desorp. (%) Cycle 2” value ([1]; 50% RH) was 0.12%, the “Sorp. (%) Cycle 1” value ([1]; 50% RH) was 0.12% and the “Desorp. (%) Cycle 2” value ([1]; 60% RH) was 0.14%. The “Sorp. (%) Cycle 1” value ([1]; 60% RH) was 0.13%, the “Desorp. (%) Cycle 2” value ([1]; 70% RH) was 0.18% and the “Sorp. (%) Cycle 1” value ([1]; 70% RH) was 0.16%. For the same molecule, the “Desorp. (%) Cycle 2” value ([1]; 80% RH) was 0.21%, the “Sorp. (%) Cycle 1” value ([1]; 80% RH) was 0.19% and the “Desorp. (%) Cycle 2” value ([1]; 90% RH) was 0.24%. For the same molecule, the “Sorp. (%) Cycle 1” value ([1]; 90% RH) was 0.23%, the “Desorp. (%) Cycle 2” value ([1]; 95% RH) was 0.24% and the “Sorp. (%) Cycle 1” value ([1]; 95% RH) was 0.24%. For the same molecule, the “Hygroscopicity” value [1] was “slightly hygroscopic”, the “XRPD after DVS test” value ([1]; cycle 40-0-95-0-40% RH) was “No form change” and the Water uptake [1] was “about 0.2%”. For the same molecule, the “Crystal modification after 1 week equilibration (XRPD)” value (from here on “Crystal modification”) ([2]; PS1: IPA) was “Compound II Pattern 1”, the “Crystal modification” value ([2]; PS2: Heptanes) was “Compound II Pattern 1” and the “Crystal modification” value ([2]; PS3: Water) was “Compound II Pattern 1”. For the same molecule, the “Crystal modification” value ([2]; PS4: ACN) was “Compound II Pattern 2”, the “Crystal modification” value ([2]; PS5: MEK) was “Compound II Pattern 3” and the “Crystal modification” value ([2]; PS6: Acetone) was “Compound II Pattern 1”. The “Crystal modification” value ([2]; PS7: IPA/heptanes (3/10, v/v)) was “Compound II Pattern 1”, the “Crystal modification” value ([2]; PS8: water/ACN (2.9/97.1, v/v)) was “Compound II Pattern 2” and the “Crystal modification” value ([2]; PS9: IPA/MTBE (1/3, v/v)) was “Compound II Pattern 1”. The “Crystal modification” value ([2]; PS10: EA/toluene (1/3, v/v)) was “Compound II Pattern 1”, the “Stability after exposure to the three conditions” value [3] was “good physical and chemical stability” and the “Bulk (XRPD)” value [3, 5] was “No form change”. For the same molecule, the Color [3, 5] was “No change”, the “Purity, Bulk (HPLC)” value [3, 5] was 99.5% and the “Bulk (XRPD)” value [3, 6] was “No form change”. For the same molecule, the Color [3, 6] was “No change”, the “Purity, Bulk (HPLC)” value [3, 6] was 99.4% and the “Bulk (XRPD)” value [3, 7] was “No form change”. The Color [3, 7] was “No change”, the “Purity, Bulk (HPLC)” value [3, 7] was 99.7% and the “Initial HPLC purity” value [3] was 99.7%. The “Solubility 0.5 hours” value [4, 8] was over 2000 µg/mL, the “Solubility 2 hours” value [4, 8] was over 2000 µg/mL and the “pH of solution, 2 hours” value [4, 8] was 2.85. The “Solubility 0.5 hours” value [4, 9] was over 2000 µg/mL, the “Solubility 2 hours” value [4, 9] was over 2000 µg/mL and the “pH of solution, 2 hours” value [4, 9] was 4.2. The “Solubility 0.5 hours” value [4, 10] was over 2000 µg/mL, the “Solubility 2 hours” value [4, 10] was over 2000 µg/mL and the “pH of solution, 2 hours” value [4, 10] was 6.47. For the same molecule, the “Solubility 0.5 hours” value ([4]; ES4: Water) was over 2000 µg/mL, the “Solubility 2 hours” value ([4]; ES4: Water) was over 2000 µg/mL and the “pH of solution, 2 hours” value ([4]; ES4: Water) was 2.87. For the same molecule, the “Solubility 0.5 hours” value [4, 11] was over 2000 µg/mL, the “Solubility 2 hours” value [4, 11] was over 2000 µg/mL and the “pH of solution, 2 hours” value [4, 11] was 5.79.
In the case of `CCOC(=O)C(C)NP(=O)(COCCn1cnc2c(OC)nc(N)nc21)OCc1ccccc1.O=C(O)C=CC(=O)O` (stereo not shown) [Compound III Pattern 2], the “Desorp. (%) Cycle 1” value ([1]; 0% RH) is reported as 0.00%, the “Desorp. (%) Cycle 2” value ([1]; 0% RH) is reported as 0.00% and the “Sorp. (%) Cycle 1” value ([1]; 0% RH) is reported as 0.00%. For the same molecule, the “Sorp. (%) Cycle 2” value ([1]; 0% RH) was 0.00%, the “Desorp. (%) Cycle 1” value ([1]; 10% RH) was 0.07% and the “Desorp. (%) Cycle 2” value ([1]; 10% RH) was 0.07%. For the same molecule, the “Sorp. (%) Cycle 1” value ([1]; 10% RH) was 0.07%, the “Sorp. (%) Cycle 2” value ([1]; 10% RH) was 0.07% and the “Desorp. (%) Cycle 1” value ([1]; 20% RH) was 0.15%. For the same molecule, the “Desorp. (%) Cycle 2” value ([1]; 20% RH) was 0.15%, the “Sorp. (%) Cycle 1” value ([1]; 20% RH) was 0.14% and the “Sorp. (%) Cycle 2” value ([1]; 20% RH) was 0.14%. For the same molecule, the “Desorp. (%) Cycle 1” value ([1]; 30% RH) was 0.23%, the “Desorp. (%) Cycle 2” value ([1]; 30% RH) was 0.23% and the “Sorp. (%) Cycle 1” value ([1]; 30% RH) was 0.22%. For the same molecule, the “Sorp. (%) Cycle 2” value ([1]; 30% RH) was 0.22%, the “Desorp. (%) Cycle 1” value ([1]; 40% RH) was 0.30% and the “Desorp. (%) Cycle 2” value ([1]; 40% RH) was 0.32%. The “Sorp. (%) Cycle 1” value ([1]; 40% RH) was 0.29%, the “Sorp. (%) Cycle 2” value ([1]; 40% RH) was 0.30% and the “XRPD after DVS test” value ([1]; 40-0-95-0-40% RH) was “No form change”. For the same molecule, the “Desorp. (%) Cycle 2” value ([1]; 50% RH) was 0.41%, the “Sorp. (%) Cycle 1” value ([1]; 50% RH) was 0.39% and the “Desorp. (%) Cycle 2” value ([1]; 60% RH) was 0.52%. For the same molecule, the “Sorp. (%) Cycle 1” value ([1]; 60% RH) was 0.47%, the “Desorp. (%) Cycle 2” value ([1]; 70% RH) was 0.67% and the “Sorp. (%) Cycle 1” value ([1]; 70% RH) was 0.59%. For the same molecule, the “Desorp. (%) Cycle 2” value ([1]; 80% RH) was 0.81%, the “Sorp. (%) Cycle 1” value ([1]; 80% RH) was 0.71% and the “Desorp. (%) Cycle 2” value ([1]; 90% RH) was 0.97%. The “Sorp. (%) Cycle 1” value ([1]; 90% RH) was 0.92%, the “Desorp. (%) Cycle 2” value ([1]; 95% RH) was 1.01% and the “Sorp. (%) Cycle 1” value ([1]; 95% RH) was 1.01%. The “Hygroscopicity” value [1] was “slightly hygroscopic”, the “XRPD after DVS test” value ([1]; cycle 40-0-95-0-40% RH) was “No form change” and the Water uptake [1] was “about 1.0%”. For the same molecule, the “Crystal modification” value ([2]; PS1: IPA) was “Compound V Pattern 2”, the “Crystal modification” value ([2]; PS2: Heptanes) was “Compound III Pattern 2” and the “Crystal modification” value ([2]; PS3: Water) was “Compound III Pattern 3”. For the same molecule, the “Crystal modification” value ([2]; PS4: ACN) was “Compound III Pattern 4”, the “Crystal modification” value ([2]; PS5: MEK) was “Compound III Pattern 5” and the “Crystal modification” value ([2]; PS7: IPA/heptanes (3/10, v/v)) was “Compound III Pattern 2”. The “Crystal modification” value ([2]; PS8: water/ACN (2.9/97.1, v/v)) was “Compound III Pattern 4”, the “Crystal modification” value ([2]; PS9: IPA/MTBE (1/3, v/v)) was “Compound III Pattern 6” and the “Crystal modification” value ([2]; PS10: EA/toluene (1/3, v/v)) was “Compound III Pattern 2”. The “Stability after exposure to the three conditions” value [3] was “good physical stability”, the Degradation product increase ([3]; 40° C./75% RH in an open container) was 1.6% and the Degradation product increase ([3]; 60° C. in a tight container) was 1.5%. The “Bulk (XRPD)” value [3, 5] was “No form change”, the Color [3, 5] was “No change” and the “Purity, Bulk (HPLC)” value [3, 5] was 98.7%. For the same molecule, the “Bulk (XRPD)” value [3, 6] was “No form change (One”, the Color [3, 6] was “No change” and the “Purity, Bulk (HPLC)” value [3, 6] was 97.2%. For the same molecule, the “Bulk (XRPD)” value [3, 7] was “No form change (One”, the Color [3, 7] was “No change” and the “Purity, Bulk (HPLC)” value [3, 7] was 97.3%. For the same molecule, the “Initial HPLC purity” value [3] was 98.8%, the “Solubility 0.5 hours” value [4, 8] was over 2000 µg/mL and the “Solubility 2 hours” value [4, 8] was over 2000 µg/mL. The “pH of solution, 2 hours” value [4, 8] was 2.83, the “Solubility 0.5 hours” value [4, 9] was over 2000 µg/mL and the “Solubility 2 hours” value [4, 9] was over 2000 µg/mL. The “pH of solution, 2 hours” value [4, 9] was 4.12, the “Solubility 0.5 hours” value [4, 10] was over 2000 µg/mL and the “Solubility 2 hours” value [4, 10] was over 2000 µg/mL. For the same molecule, the “pH of solution, 2 hours” value [4, 10] was 6.44, the “Solubility 0.5 hours” value ([4]; ES4: Water) was over 2000 µg/mL and the “Solubility 2 hours” value ([4]; ES4: Water) was over 2000 µg/mL. The “pH of solution, 2 hours” value ([4]; ES4: Water) was 2.78, the “Solubility 0.5 hours” value [4, 11] was over 2000 µg/mL and the “Solubility 2 hours” value [4, 11] was over 2000 µg/mL. For the same molecule, the “pH of solution, 2 hours” value [4, 11] was 5.37.

— patent publication US20240139220A1, “TREATMENT OF HPV INFECTION” (priority 2022, published 2024)
